Data on one compound can be found in ChEMBL document CHEMBL5465560, “Selectivity Literature for EUbOPEN Chemogenomic Library” (2024).

Settings in all cases: at 1 µM
The target in assay [1] is Receptor-type tyrosine-protein kinase FLT3 (Homo sapiens) (UniProt P36888). The assay can be described thus: (§1) Selectivity interaction (KinomeScan (DiscoverX)) EUB0001619a FLT3.
Assay [2] concerns T1, Receptor-type tyrosine-protein kinase FLT3 (Homo sapiens), P36888 [N841I].
T1 sequence (whole entry): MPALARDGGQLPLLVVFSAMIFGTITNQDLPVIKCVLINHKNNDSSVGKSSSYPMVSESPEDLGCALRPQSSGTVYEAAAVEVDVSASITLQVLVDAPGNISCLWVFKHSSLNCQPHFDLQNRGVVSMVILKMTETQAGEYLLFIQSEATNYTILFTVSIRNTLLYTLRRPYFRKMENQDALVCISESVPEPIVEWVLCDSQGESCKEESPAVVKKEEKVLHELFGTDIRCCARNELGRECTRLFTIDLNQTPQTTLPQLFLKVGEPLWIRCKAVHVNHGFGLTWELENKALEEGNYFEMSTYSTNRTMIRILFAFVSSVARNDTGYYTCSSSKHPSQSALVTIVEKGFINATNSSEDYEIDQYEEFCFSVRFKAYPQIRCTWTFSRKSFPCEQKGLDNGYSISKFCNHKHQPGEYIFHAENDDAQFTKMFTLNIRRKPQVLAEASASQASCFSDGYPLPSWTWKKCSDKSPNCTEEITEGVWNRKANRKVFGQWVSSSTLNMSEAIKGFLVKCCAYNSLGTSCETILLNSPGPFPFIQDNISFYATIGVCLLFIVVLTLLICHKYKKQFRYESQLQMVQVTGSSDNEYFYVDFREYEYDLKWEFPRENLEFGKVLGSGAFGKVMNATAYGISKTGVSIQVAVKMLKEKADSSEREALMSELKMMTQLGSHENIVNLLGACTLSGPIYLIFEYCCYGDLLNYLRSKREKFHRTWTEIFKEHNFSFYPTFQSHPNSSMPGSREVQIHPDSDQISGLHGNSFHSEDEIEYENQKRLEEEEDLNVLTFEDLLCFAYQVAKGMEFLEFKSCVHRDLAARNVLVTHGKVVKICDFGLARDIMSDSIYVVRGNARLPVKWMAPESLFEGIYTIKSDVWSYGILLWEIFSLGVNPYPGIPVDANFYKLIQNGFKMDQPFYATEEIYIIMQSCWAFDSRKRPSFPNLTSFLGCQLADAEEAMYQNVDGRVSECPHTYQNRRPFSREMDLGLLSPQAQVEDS
The assay is described as §1.

The subject of assay [3] is T2, Receptor-type tyrosine-protein kinase FLT3 (Homo sapiens), P36888 [D835Y].
T2 sequence (whole entry): T1 sequence (whole entry) with D835Y, I841N
The description is as §1.

Assay [4] concerns Receptor-type tyrosine-protein kinase FLT3 (Homo sapiens), P36888 [UNDEFINED MUTATION]. Described as §1.
For assay [5], the system named is T3, Receptor-type tyrosine-protein kinase FLT3 (Homo sapiens), P36888 [K663Q].
T3 sequence (whole entry): T1 sequence (whole entry) with K663Q, I841N
The description is as §1.

SMILES strings stand for the structures. Positions count from the first letter of the chain named.

Turning to `N#Cc1cccc(-c2c[nH]c3ncnc(N4CCOCC4)c23)c1`, the % of control in assay [1] came to 89%; in assay [2] it was 100%; in assay [3], 65%; in assay [4], 100%; in assay [5] it was 71%.
